Measurements published in patent publication US20260258025A1, “INHIBITORS OF TDP-43 AND TAU AGGREGATION” (Aquinnah Pharmaceuticals, inc., priority 2023, published 2026).
“Also recorded” adds a separate entry of the source.

Test system: TDP-43 splicing function
Assay: qRT-PCR of TDP-43 sentinel transcripts (STMN2, ELAVL3, PFKP) in MG-132 challenged human motor neurons
Type: cell-based
Method: Cell culture and differentiation of iPS Cells into motor neurons. Pluripotent stem cells were grown with mTeSR Plus medium on tissue culture dishes coated with Matrigel, and maintained in 5% CO2 incubators at 37° C. Stem cells were passaged as small aggregates of cells after 1 mM EDTA treatment. […] was added to the cultures for 16-24 h after dissociation to prevent cell death. The iP11NA iPS cell line was acquired from ALSTEM. This cell line was generated from pre-made footprint-free human iPS cells with DOX inducible Ngn2 that has been stably integrated into the human AAVS1 “Safe Harbor” site, and provides a convenient means to differentiate human iPS cells into neurons rapidly and efficiently. Motor neuron differentiation was achieved using a modified 5-day strategy.
This approach relies on neural induction through small molecule inhibition of SMAD signaling, accelerated neural differentiation through forced Ngn2 expression, and motor neuron patterning through the activation of retinoic acid and Sonic Hedgehog signaling pathways. In brief, pluripotent stem cells were dissociated to single cells using accutase and plated at a density of 80,000 cells per cm^2 on Matrigel-coated culture plates with mTeSR Plus medium supplemented with ROCK inhibitor (10 μM Y-27632, ATCC). When cells reached 50% confluency, medium was changed to differentiation medium BrainPhys medium supplemented with N2-A, SM1, […]. This time point was defined as day 0 (d0) of motor neuron differentiation. Treatment with small molecules was carried out as follows: 2 μg/mL Doxycyline, 10 μM SB431542, 100 nM LDN-193189, […] and 1 μM Smoothend agonist and 10 uM Edu. The full list of materials and their descriptions is included below in Table 5.
Total RNA was isolated from d14 motor neurons for qRT-PCR assays using TaqMan™ Fast Advanced Cells-to-CT™ Kit according to manufacturer's instructions. 7500 neurons per well of 96-well culture were routinely used for processing. qRT-PCR was then performed using multiplex assays from IDT using PrimeTime™ Gene Expression Master Mix (IDT) on a QuantStudio6Pro system. Quantitative levels for all genes assayed were normalized using GAPDH expression. […] Primers and probes used in this study are in Table 5.
To this end, we first examined whether proteasome inhibition, which triggers TDP-43 nuclear depletion, also leads to splicing defects associated with TDP-43 loss-of function. For comparison, we also treated human motor neurons with puromycin, which recruits TDP-43 to stress granules in the cytoplasm. We chose to analyze several transcripts that have relevant connections to ALS biology including STMN26,12, PFKP19, and ELAVL320,21. We used quantitative reverse transcription-polymerase chain reaction (qRT-PCR) to validate that in MG-132-treated motor neurons these transcripts were altered like in ALS patients.
Using this method, we next obtained RNA from independent motor neuron biological replicates after proteasome inhibition and Compound 183 treatment to determined by qRT-PCR the relative abundance of these transcripts. […] A dose-responsive effect was further tested for Compound 183 using qRT-PCR in this model. […] Collectively, the data support the notion that Compound 183 promotes TDP-43 nuclear function under proteotoxic stress.

[1] = Compound 183 500 nM with MG-132 1 μM, relative to MG-132 control
[2] = by 500 nM, MG-132 1 μM challenged motor neurons

Compound: Cc1cc(-c2ccc(C3CCN(C(C)C)CC3)cc2)sc1C(=O)N1CC[C@H](N)C1 [Compound 183, (S)-(3-aminopyrrolidin-1-yl)(5-(4-(1-isopropylpiperidin-4-yl)phenyl)-3-methylthiophen-2-yl)methanone]
- cryptic splicing events of STMN2, ELAVL3 and PFKP (qRT-PCR) [1]: nearly complete inhibition for all three cryptic splicing events
- splicing of the normal transcripts, TDP-43 splicing function (qRT-PCR) [1]: increased splicing of the normal transcripts; also recorded: restoring splicing function of TDP-43
- restoration of normal STMN2 and ELAVL3 levels (qRT-PCR, dose response) (MG-132 1 μM challenged motor neurons): modest in its ability to restore normal STMN2 and ELAVL3 levels
- maintenance of TDP-43 splicing function, dose response (qRT-PCR) (MG-132 1 μM challenged motor neurons, effective concentration range for most transcripts): restoring TDP-43 splicing function in dose dependent manner
- restoration of normal splicing of PFKP (qRT-PCR, dose response) [2]: fully restored normal splicing of PFKP
- suppression of cryptic splicing, all transcripts tested (qRT-PCR, dose response) [2]: strong suppression of cryptic splicing
